This assay concerns CD235+ erythroblasts. The experiment in a line: CD235+ erythroblast differentiation of CD34+ HSPCs from DBA patient bone marrow. In kind it is cell-based, human. Conditions: DBA patient samples, 5 μM SD208. The procedure: FIG. 8. NLK inhibition increases expansion of erythroid progenitors from human and murine models of DBA. Human cord blood CD34+ progenitors were transduced with lentivirus co-expressing GFP with shRNA against luciferase (shLuc), RPS19 (shRPS19) or RPL11 (shRPL11). After 36 hours cells GFP+ cells were differentiated in erythroid media in the presence or absence of 5 μM SD208 for 15 days. Cells were counted and assessed for cell surface expression of CD235. (a) The percentage of CD235+ cells was multiplied by the cell count and values were compared as a percentage of untreated controls. (b) Normalizing values relative to untreated RPS19-insufficiency progenitors facilitates direct comparison of erythropoiesis between untreated and SD208-treated cultures. (c) Approximately 3000 cells were removed from differentiating treatments at day 6 and NLK activity was assessed. […] Values were expressed as a percentage relative to untreated controls (e) and directly comparing the effect of SD208 on erythropoiesis in ribosomal-insufficiency by expressing values relative to untreated ribosome-insufficient cultures (f). […] After counting the total cell population, the ratio of CD235+ erythroblasts was determined by flow cytometry and number of CD235+ erythroblasts calculated. This was expressed as a percentage of the average number of erythroid cells present in untreated healthy controls. […]

The record followed here is patent publication US12403132B2, “Methods of treating bone marrow failure syndromes and compositions for use in the same” (The Board of Trustees of the Leland Stanford Junior …, priority 2020, dated 2025).

On to `Fc1ccc(Cl)cc1-c1nc(Nc2ccncc2)c2nccnc2n1` [SD208], for which the “mean increase in erythroid expansion” value was found to be 2.11 fold.
